What all share (assay type): functional
For experiment [1], the target named is P2Y purinoceptor 2 (Homo sapiens, UniProt P41231). In words: Agonist activity at human P2Y2 receptor expressed in human 1321N1 by FLIPR assay.
Experiment [2] concerns the target P2Y purinoceptor 6 (Homo sapiens, UniProt Q15077). Briefly: Agonist activity at human cloned P2Y6 receptor expressed in human 1321N1 by FLIPR assay.
Experiment [3] has as its target P2Y purinoceptor 4 (Homo sapiens, UniProt P51582). Briefly: Agonist activity at human cloned P2Y4 receptor expressed in human 1321N1 by FLIPR assay.
For experiment [4], the target named is P2Y purinoceptor 1 (Homo sapiens, UniProt P47900). In words: Agonist activity at human cloned P2Y1 receptor expressed in human 1321N1 by FLIPR assay.
Sequence of P2Y purinoceptor 1 (P47900 whole entry): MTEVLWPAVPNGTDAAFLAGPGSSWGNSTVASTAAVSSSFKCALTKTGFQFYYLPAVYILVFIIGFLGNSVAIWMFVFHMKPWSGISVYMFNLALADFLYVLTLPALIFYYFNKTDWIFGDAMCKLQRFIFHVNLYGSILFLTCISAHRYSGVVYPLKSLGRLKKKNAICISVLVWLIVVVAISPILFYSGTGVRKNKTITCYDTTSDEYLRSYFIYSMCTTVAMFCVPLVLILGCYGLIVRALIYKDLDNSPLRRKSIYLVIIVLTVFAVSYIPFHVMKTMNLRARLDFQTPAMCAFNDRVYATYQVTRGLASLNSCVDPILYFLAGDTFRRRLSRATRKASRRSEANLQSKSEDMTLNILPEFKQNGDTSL

Among the data in ChEMBL document CHEMBL1138369, “Novel nucleotide triphosphates as potent P2Y2 agonists” (Bioorg Med Chem Lett, 2007) are EC50 values, retold here.

Sequence of P2Y purinoceptor 4 (P51582 whole entry): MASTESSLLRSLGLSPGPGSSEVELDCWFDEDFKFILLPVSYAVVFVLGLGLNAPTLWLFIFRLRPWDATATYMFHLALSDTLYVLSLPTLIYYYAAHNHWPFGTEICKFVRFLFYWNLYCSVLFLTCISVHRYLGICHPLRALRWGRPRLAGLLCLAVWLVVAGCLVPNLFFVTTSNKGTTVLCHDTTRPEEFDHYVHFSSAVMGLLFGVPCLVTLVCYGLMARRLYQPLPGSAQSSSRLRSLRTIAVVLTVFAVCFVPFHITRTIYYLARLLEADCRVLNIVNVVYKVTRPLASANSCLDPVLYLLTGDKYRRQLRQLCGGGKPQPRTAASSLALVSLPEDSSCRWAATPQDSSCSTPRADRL
Sequence of P2Y purinoceptor 2 (P41231 whole entry): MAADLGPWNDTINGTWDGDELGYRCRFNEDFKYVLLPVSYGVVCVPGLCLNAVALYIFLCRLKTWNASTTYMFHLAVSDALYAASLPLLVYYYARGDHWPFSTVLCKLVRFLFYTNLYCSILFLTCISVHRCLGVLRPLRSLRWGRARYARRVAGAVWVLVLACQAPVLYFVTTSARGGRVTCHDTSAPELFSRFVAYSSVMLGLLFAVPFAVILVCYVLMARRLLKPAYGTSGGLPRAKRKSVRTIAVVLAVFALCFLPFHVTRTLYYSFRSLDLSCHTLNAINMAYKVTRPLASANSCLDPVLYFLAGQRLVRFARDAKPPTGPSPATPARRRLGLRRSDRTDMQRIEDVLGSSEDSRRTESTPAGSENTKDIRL
Sequence of P2Y purinoceptor 6 (Q15077 whole entry): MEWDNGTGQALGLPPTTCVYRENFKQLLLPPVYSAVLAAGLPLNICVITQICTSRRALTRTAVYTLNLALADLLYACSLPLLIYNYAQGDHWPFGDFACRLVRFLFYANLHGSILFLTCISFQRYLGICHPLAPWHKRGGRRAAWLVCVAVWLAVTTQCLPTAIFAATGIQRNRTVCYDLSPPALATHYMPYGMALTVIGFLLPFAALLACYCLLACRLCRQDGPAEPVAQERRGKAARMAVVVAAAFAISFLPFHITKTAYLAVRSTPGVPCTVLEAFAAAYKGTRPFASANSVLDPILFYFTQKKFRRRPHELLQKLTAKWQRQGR

For the compound `COc1cc2ccn([C@@H]3O[C@H](COP(=O)(O)OP(=O)(O)OP(=O)(O)O)[C@@H](O)[C@H]3O)c(=O)c2cc1F`, in experiment [1], the response was half-maximal at 6 nM (EC50).

Compound `CS(=O)(=O)c1ccc2ccn([C@@H]3O[C@H](COP(=O)(O)OP(=O)(O)OP(=O)(O)O)[C@@H](O)[C@H]3O)c(=O)c2c1` registered an EC50 in experiment [1] of 650 nM.

`CN(C)c1cc2ccn([C@@H]3O[C@H](COP(=O)(O)OP(=O)(O)OP(=O)(O)O)[C@@H](O)[C@H]3O)c(=O)c2cc1F` displayed an EC50 in experiment [1] of 4 nM.

Take `O=c1c2c(ccn1[C@@H]1O[C@H](COP(=O)(O)OP(=O)(O)OP(=O)(O)O)[C@@H](O)[C@H]1O)CCCC2`: the response in experiment [1] was half-maximal at 55 nM (EC50). `O=c1c2ccsc2ccn1[C@@H]1O[C@H](COP(=O)(O)OP(=O)(O)OP(=O)(O)O)[C@@H](O)[C@H]1O`: the concentration for a half-maximal effect (EC50) in experiment [1] was determined as 30 nM. The same measure, in the same setting: the figure for `N#Cc1ccc2c(=O)n([C@@H]3O[C@H](COP(=O)(O)OP(=O)(O)OP(=O)(O)O)[C@@H](O)[C@H]3O)ccc2c1` is 88 nM. As to `O=c1c2cc(Cl)ccc2ccn1[C@@H]1O[C@H](COP(=O)(O)OP(=O)(O)OP(=O)(O)O)[C@@H](O)[C@H]1O`, the EC50 was > 20000 nM in experiment [2], 20000 nM in experiment [3], > 20000 nM in experiment [4] and 10 nM in experiment [1]. For `N#Cc1ccc2ccn([C@@H]3O[C@H](COP(=O)(O)OP(=O)(O)OP(=O)(O)O)[C@@H](O)[C@H]3O)c(=O)c2c1`, in experiment [1], the response was half-maximal at 12 nM (EC50). Same read-out and setting: the figure for `CSc1ccc2ccn([C@@H]3O[C@H](COP(=O)(O)OP(=O)(O)OP(=O)(O)O)[C@@H](O)[C@H]3O)c(=O)c2c1` is 140 nM; for `O=c1c2occc2ccn1[C@@H]1O[C@H](COP(=O)(O)OP(=O)(O)OP(=O)(O)O)[C@@H](O)[C@H]1O` it is 221 nM. For `Cc1cn([C@@H]2O[C@H](COP(=O)(O)OP(=O)(O)OP(=O)(O)O)[C@@H](O)[C@H]2O)c(=O)c2ccccc12`, the EC50 in experiment [1] worked out at 17500 nM. For the compound `Cc1ccc2c(=O)n([C@@H]3O[C@H](COP(=O)(O)OP(=O)(O)OP(=O)(O)O)[C@@H](O)[C@H]3O)ccc2c1`, the EC50 in experiment [1] worked out at 35 nM. Still for that read-out and setting: the figure for `Cc1ccc2ccn([C@@H]3O[C@H](COP(=O)(O)OP(=O)(O)OP(=O)(O)O)[C@@H](O)[C@H]3O)c(=O)c2c1` is 148 nM; for `O=c1c2ccc(F)cc2ccn1[C@@H]1O[C@H](COP(=O)(O)OP(=O)(O)OP(=O)(O)O)[C@@H](O)[C@H]1O` it is 77 nM. In experiment [1], `O=c1c2ccc(Cl)cc2ccn1[C@@H]1O[C@H](COP(=O)(O)OP(=O)(O)OP(=O)(O)O)[C@@H](O)[C@H]1O` gave an EC50 of 541 nM. The same measure, in the same setting: the figure for `Cc1cccc2ccn([C@@H]3O[C@H](COP(=O)(O)OP(=O)(O)OP(=O)(O)O)[C@@H](O)[C@H]3O)c(=O)c12` is 85 nM. Regarding `O=c1c2cc(F)c(F)cc2ccn1[C@@H]1O[C@H](COP(=O)(O)OP(=O)(O)OP(=O)(O)O)[C@@H](O)[C@H]1O`, the EC50 in experiment [2] is > 20000 nM; in experiment [3], > 20000 nM; in experiment [4], > 20000 nM; in experiment [1], 16 nM. Consider `O=c1c2ccccc2ccn1[C@@H]1O[C@H](COP(=O)(O)OP(=O)(O)OP(=O)(O)O)[C@@H](O)[C@H]1O`, for which the EC50 is > 20000 nM in experiment [2], 7040 nM in experiment [3], > 20000 nM in experiment [4] and 31 nM in experiment [1].

For the compound `O=c1c2ccoc2ccn1[C@@H]1O[C@H](COP(=O)(O)OP(=O)(O)OP(=O)(O)O)[C@@H](O)[C@H]1O`, in experiment [1], the midpoint of the response, the EC50, lay at 68 nM. On the same count and under the same terms, as for `Cc1cccc2c(=O)n([C@@H]3O[C@H](COP(=O)(O)OP(=O)(O)OP(=O)(O)O)[C@@H](O)[C@H]3O)ccc12`, the figure is 557 nM. The same measure, in the same setting: as for `O=c1c2cc(Cl)c(Cl)cc2ccn1[C@@H]1O[C@H](COP(=O)(O)OP(=O)(O)OP(=O)(O)O)[C@@H](O)[C@H]1O`, the figure is 13 nM.

As to `O=c1c2cc(F)ccc2ccn1[C@@H]1O[C@H](COP(=O)(O)OP(=O)(O)OP(=O)(O)O)[C@@H](O)[C@H]1O`, the EC50 in experiment [2] was > 20000 nM; in experiment [3] it was 3580 nM; in experiment [4], > 20000 nM; in experiment [1], 5 nM.

Take `COc1ccc2ccn([C@@H]3O[C@H](COP(=O)(O)OP(=O)(O)OP(=O)(O)O)[C@@H](O)[C@H]3O)c(=O)c2c1`: in experiment [1], the EC50 is 26 nM. Consider `CSc1cc2ccn([C@@H]3O[C@H](COP(=O)(O)OP(=O)(O)OP(=O)(O)O)[C@@H](O)[C@H]3O)c(=O)c2cc1F`, for which the EC50 in experiment [2] was > 20000 nM; in experiment [3], > 20000 nM; in experiment [4], > 20000 nM; in experiment [1], 3 nM. In experiment [1], `O=c1c2cccnc2ccn1[C@@H]1O[C@H](COP(=O)(O)OP(=O)(O)OP(=O)(O)O)[C@@H](O)[C@H]1O` returned a concentration for a half-maximal effect (EC50) of 35 nM. Turning to `O=c1ccn([C@@H]2O[C@H](COP(=O)(O)OP(=O)(O)OP(=O)(O)OP(=O)(O)OC[C@H]3O[C@@H](n4ccc(=O)[nH]c4=O)[C@H](O)[C@@H]3O)[C@@H](O)[C@H]2O)c(=O)[nH]1` [DIQUAFOSOL], the EC50 in experiment [4] is > 20000 nM. Consider `O=c1ccn([C@@H]2O[C@H](COP(=O)(O)OP(=O)(O)OP(=O)(O)O)[C@@H](O)[C@H]2O)c(=O)[nH]1` [URIDINE TRIPHOSPHATE], for which the EC50 in experiment [2] was 424 nM; in experiment [3], 39 nM; in experiment [4] it was > 2000 nM; in experiment [1] it was 7 nM.

The EC50 is the concentration needed to bring the measured effect to its halfway point. A higher EC50 goes with a less potent agent.
